Reference: US8119624B2, “Fused phenyl amido heterocyclic compounds” (Pfizer Inc., priority 2006, dated 2012)
Where two headings read alike, the source gives them in different places.

Biological target: T1, Full-length glucokinase (beta cell isoform) (Homo sapiens, UniProt P35557)
T1 construct: Full-length glucokinase (beta cell isoform) was His-tagged at N-terminus; His tag (N); made in house
T1 sequence (P35557 1-465): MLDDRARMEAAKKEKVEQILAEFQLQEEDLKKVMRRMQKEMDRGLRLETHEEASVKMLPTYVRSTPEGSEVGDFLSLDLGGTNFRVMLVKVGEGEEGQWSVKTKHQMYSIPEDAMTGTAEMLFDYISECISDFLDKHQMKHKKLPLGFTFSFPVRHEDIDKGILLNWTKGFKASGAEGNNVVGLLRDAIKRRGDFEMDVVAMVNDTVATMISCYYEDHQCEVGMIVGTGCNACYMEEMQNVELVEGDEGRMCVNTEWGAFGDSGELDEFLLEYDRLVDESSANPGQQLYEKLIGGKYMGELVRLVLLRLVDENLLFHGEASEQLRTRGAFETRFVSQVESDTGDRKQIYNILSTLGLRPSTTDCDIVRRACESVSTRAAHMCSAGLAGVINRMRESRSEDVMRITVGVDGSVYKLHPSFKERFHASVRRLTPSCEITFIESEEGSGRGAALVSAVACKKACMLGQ
Experiment: Glucokinase biochemical assay (PK/LDH-coupled, NADH depletion at 340 nm): % activation, EC50, % max activation
Conditions: 5 mM glucose; for activation at 10 µM: read-out: % Activation at 10 uM; for EC50: read-out: EC50; for Emax: read-out: % Max Activation
Method in brief: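 Activation expressed as (Va/Vo−1)×100, where initial rates with and without compound come from NADH depletion at 340 nm over 200–900 s. Enzyme is His-tagged human beta-cell GK, full length, run at room temperature in HEPES buffer with 1 mM ATP and 5 mM glucose. DMSO 1%.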

[1] = 10 uM compound, % Activation=(Va/Vo−1)×100

Cc1ccc(NC(=O)c2cc(Oc3ccc(S(C)(=O)=O)cc3)cc3c2CCO3)nc1 [Example 6, 6-(4-Methanesulfonyl-phenoxy)-2,3-dihydrobenzofuran-4-carboxylic acid(5-methyl-pyridin-2-yl)-amide]
activation at 10 µM [1]: 87.6%
EC50 (GK activation): 9600 nM
Emax (fitted maximum activation): 123%

CCn1ncc(NC(=O)c2cc(Oc3ccc(S(C)(=O)=O)cc3)c3c(c2)OC(C)(C)C3)n1 [Example 29, 4-(4-Methanesulfonyl-phenoxy)-2,2-dimethyl-2,3-dihydro-benzofuran-6-carboxylic acid(2-ethyl-2H-[1,2,3]triazol-4-yl)-amide]
activation at 10 µM [1]: 284%
EC50 (GK activation): 250 nM
Emax (fitted maximum activation): 255%

Cc1cc2cc(C(=O)Nc3ccn(C)n3)cc(O[C@@H](C)Cc3ccccc3)c2o1 [Example 340, 2-Methyl-7-[(1S)-1-methyl-2-phenylethoxy]-N-(1-methyl-1H-pyrazol-3-yl)-1-benzofuran-5-carboxamide]
activation at 10 µM [1]: 41.2%
EC50 (GK activation): > 10000 nM

CNC(=O)c1ccc(Oc2cc(C(=O)Nc3cnn(C)n3)cc3c2CC(C)(C)O3)cn1 [Example 170, 5-[2,2-Dimethyl-6-(2-methyl-2H-[1,2,3]triazol-4-ylcarbamoyl)-2,3-dihydro-benzofuran-4-yloxy]-pyridine-2-carboxylic acid methylamide]
activation at 10 µM [1]: 264%
EC50 (GK activation): 300 nM
Emax (fitted maximum activation): 255%

Cn1ccc(NC(=O)c2cc(Oc3ccc(C(=O)O)nc3)c3c(c2)OC(C)(C)C3)n1 [Example 180, 5-[2,2-Dimethyl-6-(1-methyl-1H-pyrazol-3-ylcarbamoyl)-2,3-dihydro-benzofuran-4-yloxy]-pyridine-2-carboxylic acid]
activation at 10 µM [1]: 66.5%
EC50 (GK activation): > 10000 nM

CC(C)COc1cc(C(=O)Nc2ccc(C(=O)O)cn2)cc2c1CC(C)(C)O2 [Example 14, 6-[(4-Isobutoxy-2,2-dimethyl-2,3-dihydro-benzofuran-6-carbonyl)-amino]-nicotinic acid]
activation at 10 µM [1]: 167%
EC50 (GK activation): 1300 nM
Emax (fitted maximum activation): 115%

Cn1ccc(NC(=O)c2cc(Oc3ccc(S(C)(=O)=O)cc3)c3cc(C(F)F)oc3c2)n1 [Example 322, 2-(Difluoromethyl)-N-(1-methyl-1H-pyrazol-3-yl)-4-[4-(methylsulfonyl)-phenoxy]-1-benzofuran-6-carboxamide]
activation at 10 µM [1]: 161%
EC50 (GK activation): 6300 nM
Emax (fitted maximum activation): 235%

Cc1ccc(NC(=O)c2cc(Oc3ccc(S(C)(=O)=O)cc3)c3cc(CN(C)C)oc3c2)nc1 [Example 319, 2-[(Dimethylamino)methyl]-N-(5-methylpyridin-2-yl)-4-[4-(methylsulfonyl)-phenoxy]-1-benzofuran-6-carboxamide]
activation at 10 µM [1]: 59.7%
EC50 (GK activation): 5000 nM
Emax (fitted maximum activation): 90%

COCC1(C)Cc2c(Oc3ccc(S(C)(=O)=O)c(F)c3)cc(C(=O)Nc3ccn(C)n3)cc2O1 (centres unmarked) [Example 237, 4-(3-Fluoro-4-methanesulfonyl-phenoxy)-2-methoxymethyl-2-methyl-2,3-dihydro-benzofuran-6-carboxylic acid (1-methyl-1H-pyrazol-3-yl)-amide]
activation at 10 µM [1]: 189%
EC50 (GK activation): 98 nM
Emax (fitted maximum activation): 157%

Cc1ccc(NC(=O)c2cc(Oc3ccc(S(C)(=O)=O)cn3)c3cc(C)oc3c2)nc1 [Example 281, 2-Methyl-N-(5-methylpyridin-2-yl)-4-(5-(methylsulfonyl)pyridin-2-yloxy)-benzofuran-6-carboxamide]
activation at 10 µM [1]: 92.7%
EC50 (GK activation): 2100 nM
Emax (fitted maximum activation): 87%

Cn1ccc(NC(=O)c2cc(Oc3cc(F)cc(F)c3)c3c(c2)OC(C)(C)C3)n1 [Example 113, 4-(3,5-Difluoro-phenoxy)-2,2-dimethyl-2,3-dihydro-benzofuran-6-carboxylic acid (1-methyl-1H-pyrazol-3-yl)-amide]
activation at 10 µM [1]: 239%
EC50 (GK activation): 2600 nM
Emax (fitted maximum activation): 265%

Cc1ccc(NC(=O)c2cc3c(c(Oc4ccc(S(C)(=O)=O)cc4)c2)CCO3)nc1 [Example 8, 4-(4-Methanesulfonyl-phenoxy)-2,3-dihydro-benzofuran-6-carboxylic acid(5-methyl-pyridin-2-yl)-amide]
activation at 10 µM [1]: 127%
EC50 (GK activation): 2800 nM
Emax (fitted maximum activation): 100%

Cc1ccc(NC(=O)c2cc(OC3CN(S(C)(=O)=O)C3)c3cc(C)oc3c2)nc1 [Example 326, 2-Methyl-N-(5-methylpyridin-2-yl)-4-{[1-(methylsulfonyl)-azetidin-3-yl]oxy}-1-benzofuran-6-carboxamide]
activation at 10 µM [1]: 76.9%
EC50 (GK activation): 2100 nM
Emax (fitted maximum activation): 90%

Cn1ccc(NC(=O)c2cc(Oc3ccc(C(=O)N4CCOCC4)cc3)c3c(c2)OC(C)(C)C3)n1 [Example 47, 2,2-Dimethyl-4-[4-(morpholine-4-carbonyl)-phenoxy]-2,3-dihydro-benzofuran-6-carboxylic acid(1-methyl-1H-pyrazol-3-yl)-amide]
activation at 10 µM [1]: 140%
EC50 (GK activation): 1050 nM
Emax (fitted maximum activation): 156%

COCC1(C)Cc2c(Oc3ccc(S(=O)(=O)C4CC4)cc3)cc(C(=O)Nc3ccn(C)n3)cc2O1 (single isomer, unassigned; (-)) [Example 247, (−)-4-(4-Cyclopropanesulfonyl-phenoxy)-2-methoxymethyl-2-methyl-2,3-dihydro-benzofuran-6-carboxylic acid (1-methyl-1H-pyrazol-3-yl)-amide]
% Activation at 10 uM [1]: 252%
EC50 (GK activation): 83 nM
% Max Activation (fitted maximum activation): 254%

CN(C)C(=O)c1ccc(Oc2cc(C(=O)Nc3ccn(C)n3)cc3c2CC(C)(C)O3)c(F)c1 [Example 46, 4-(4-Dimethylcarbamoyl-2-fluoro-phenoxy)-2,2-dimethyl-2,3-dihydro-benzofuran-6-carboxylic acid(1-methyl-1H-pyrazol-3-yl)-amide]
activation at 10 µM [1]: 118%
EC50 (GK activation): 310 nM
Emax (fitted maximum activation): 138%

Cc1ccc(NC(=O)c2cc(OC(C)C)cc3oc(C(C)C)cc23)nc1 [Example 348, 6-Isopropoxy-2-isopropyl-N-(5-methylpyridin-2-yl)benzofuran-4-carboxamide]
activation at 10 µM [1]: 16.6%

COCCN1Cc2c(Oc3ccc(S(C)(=O)=O)cc3)cc(C(=O)Nc3ccc(C)cn3)cc2C1=O [Example 387, 2-(2-Methoxyethyl)-N-(5-methylpyridin-2-yl)-7-(4-(methylsulfonyl)-phenoxy)-3-oxoisoindoline-5-carboxamide]
EC50 (1 mM ATP, room temperature): > 10000 nM
activation at 10 µM (compound at 10 uM, 1 mM ATP, room temperature): 42.9%

Cc1cc2c(Oc3ccc(C(=O)N(C)C)nc3)cc(C(=O)Nc3cnn(C)n3)cc2o1 [Example 278, N,N-Dimethyl-5-(2-methyl-6-((2-methyl-2H-1,2,3-triazol-4-yl)carbamoyl)-benzofuran-4-yloxy)picolinamide]
activation at 10 µM [1]: 131%
EC50 (GK activation): 470 nM
Emax (fitted maximum activation): 123%

Cn1ccc(NC(=O)c2cc(Oc3ccc(S(C)(=O)=O)c(Cl)c3)c3c(c2)OC(C)(C)C3)n1 [Example 139, 4-(3-Chloro-4-methanesulfonyl-phenoxy)-2,2-dimethyl-2,3-dihydro-benzofuran-6-carboxylic acid (1-methyl-1H-pyrazol-3-yl)-amide]
activation at 10 µM [1]: 242%
EC50 (GK activation): 550 nM
Emax (fitted maximum activation): 254%

Cn1ccc(NC(=O)c2cc(Oc3ccc(C(=O)N4CCC4)cc3F)c3c(c2)OC(C)(C)C3)n1 [Example 32, 4-[4-(Azetidine-1-carbonyl)-2-fluoro-phenoxy]-2,2-dimethyl-2,3-dihydro-benzo-furan-6-carboxylic acid(1-methyl-1H-pyrazol-3-yl)-amide]
activation at 10 µM [1]: 164%
EC50 (GK activation): 210 nM
Emax (fitted maximum activation): 177%

Cc1cc2c(OC3CN(S(C)(=O)=O)C3)cc(C(=O)Nc3ccn(C)n3)cc2o1 [Example 327, 2-Methyl-N-(1-methyl-1H-pyrazol-3-yl)-4-{[1-(methylsulfonyl)-azetidin-3-yl]oxy}-1-benzofuran-6-carboxamide]
activation at 10 µM [1]: 108%
EC50 (GK activation): > 10000 nM

CCc1cc2c(Oc3ccc(C(=O)N(C)C)cc3)cc(C(=O)Nc3ccc(C)cn3)cc2o1 [Example 276, 4-{4-[(Dimethylamino)carbonyl]phenoxy}-2-ethyl-N-(5-methylpyridin-2-yl)-1-benzofuran-6-carboxamide]
activation at 10 µM [1]: 20%

Cc1ccc(NC(=O)c2cc(Oc3ccc(C(=O)N(C)C)c(F)c3)c3cc(C)sc3c2)nc1 [Example 361, 4-(4-(Dimethylcarbamoyl)-3-fluorophenoxy)-2-methyl-N-(5-methylpyridin-2-yl)benzo[b]thiophene-6-carboxamide]
activation at 10 µM [1]: 4.2%

Cc1ccc(NC(=O)c2cc(Oc3ccc(S(C)(=O)=O)cc3)c3oc(C)cc3c2)nc1 [Example 337, 2-Methyl-N-(5-methylpyridin-2-yl)-7-[4-(methylsulfonyl)-phenoxy]-1-benzofuran-5-carboxamide]
activation at 10 µM [1]: 42.6%
EC50 (GK activation): 3000 nM
Emax (fitted maximum activation): 89%
